Here are results for 1 compound from patent US5585364A, “Antiviral compounds” (British Technology Group Limited, priority 1989, dated 1996).

The subject of series [1] is HIV 3B. As to the kind of experiment: Anti-HIV testing: protection of MT4 cells from virus induced cytopathic effect (MTT uptake). Type of series: cell-based, HIV-1. The settings on record: for Antiviral Activity: % Protection: MT4 cells, HIV 3B, 5 days, 37° C. As to the method: (§1) The sample, considered of adequate quality for antiviral testing is assayed as follows:
(§2) The assays are carried out in 96 well (microtitre) panels using the MT4 cell line, infe3cted with IOTCID50 of HIV 3B. The antiviral activity and cytotoxicity of each compound is assayed simultaneously. Three compounds are screened on each panel. Each compound is tested at 100.0, 10.0, 1.0 and 0.1 μM, unless otherwise stated. AZT is included in each assay as a positive control at 10.0, 1.0, 0.1 and 0.01 μM.
(§3) The antiviral activity (in infected cells) and cytotoxicity (to uninfected cells) of each compound is determined by measuring the number of viable cells remaining after 5 days incubation of 37° C. and comparing them with infected or uninfected controls. The number of viable cells is determined by the addition of the tetrazolium dye MTT. […] Following MTT addition, the cells are solubilised with acidified isopropanol and the extent of MTT conversion is measured spectrophotometrically.
Antiviral activity is apparent through the ability of compounds to protect the cells from virus induced cytopathic effect. The result is reported as the percentage of cells protected at a given drug concentration.
Background: Damage to the host cells serves as the signal in cytopathic effect assays.

Series [2] in a line: Cytotoxicity to uninfected MT4 cells (MTT uptake). The settings on record: human. Type of series: cell-based. As to the method: as §1, §2, §3

Molecules are shown by their SMILES. Read-outs that look alike come from different tables or passages of the source.

As to `Cc1cn([C@H]2C[C@H](N=[N+]=[N-])[C@@H](COP(=O)(OC[C@H]3O[C@@H](n4cc(C)c(=O)[nH]c4=O)C[C@@H]3N=[N+]=[N-])Oc3ccc(S(C)(=O)=O)cc3)O2)c(=O)[nH]c1=O` [BTG 1704, 4-(methylsulphonyl)phenyl bis (3'-azido thymidin-5'-yl) phosphate], the “Antiviral Activity: % Protection” value is 9% in series [1] (0.001 μM); 21% in series [1] (0.01 μM); 91% in series [1] (0.1 μM); 91% in series [1] (1.0 μM); 79% in series [1] (10 μM); 13% in series [1] (100 μM). In addition, the “protection of MT4 cells from HIV-1 cytopathic effect” value in series [1] (concentrations between 0.1 and 10 μM) is “significant protection”. For the same compound, the MCC at 120 h was ~100 µM in series [2] (estimated, not a quantitative test for cytotoxicity, read-out: toxic concentration of the drug) and 100 µM in series [2] (uninfected MT4 cells, 5 days, 37° C., read-out: MTC).
